{"source": "patent US20240409536A1", "about": "“COMPOUNDS AND METHODS FOR MODULATING SPLICING” (REMIX THERAPEUTICS INC., priority 2021, published 2024)", "key": {"[1]": {"tested_on": "SMN2 mRNA", "experiment": "Gene panel canonical junction qPCR assay, SMN2 CJ mRNA decrease", "format": "cell-based, human", "conditions": "Homo sapiens, canonical junction qPCR, read-out: SMN2 IC50 (decrease in CJ mRNA levels)", "how_it_was_run": "(§1)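 A673 or K562 cells treated with compound; canonical exon-exon junction mRNA quantified by cDNA synthesis and RT-qPCR with junction-spanning primer/probe, normalized to GAPDH, GUSB or PPIA and DMSO (2^(−ΔΔCt)). Percent response from set ΔCt assay windows fitted to 4-parameter logistic; IC50 for CJ decrease.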"}, "[2]": {"tested_on": "MYB mRNA", "experiment": "Splicing RT-qPCR assay, MYB canonical (CJ) and alternative (AJ) junction mRNA", "format": "cell-based", "conditions": "Homo sapiens, A673 or K562 cells, 24 hours; for IC50: decrease in canonical junction mRNA; for AC50: increase in alternative junction mRNA", "how_it_was_run": "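A673 (DMEM/10% FBS, plated 24 h before dosing) or K562 (IMDM/10% FBS) cells treated 24 h at 37 °C with 11-point 3-fold dilutions, top final 10 uM, DMSO ≤0.25%. Lysates analysed by one-step RT-qPCR for CJ and AJ isoforms, normalized to GAPDH/GUSB (K562) or PPIA (A673).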"}, "[3]": {"tested_on": "MYB mRNA", "experiment": "Gene panel canonical junction qPCR assay, MYB CJ mRNA decrease", "format": "cell-based, human", "conditions": "Homo sapiens, canonical junction qPCR, read-out: MYB IC50 (decrease in CJ mRNA levels)", "how_it_was_run": "as §1"}}}
{"compound": "Cc1cn2cc(NC(=O)c3ccc(N4C[C@@H](C)N[C@@H](C)C4)c4ncccc34)cc(F)c2n1", "note": "[Compound 358]", "values": [{"measurement": "IC50", "setting": "[1]", "result": "> 10000", "unit": "nM"}, {"measurement": "IC50", "setting": "[2]", "result": "> 10000", "unit": "nM"}, {"measurement": "AC50", "setting": "[2]", "result": "> 10000", "unit": "nM"}, {"measurement": "IC50", "setting": "[3]", "result": "> 10000", "unit": "nM"}]}
{"compound": "Cc1cn2cc(NC(=O)c3ccc(N4C[C@@H](C)N[C@@H](C)C4)c4nccnc34)nc2c(C)n1", "note": "[Compound 359]", "values": [{"measurement": "IC50", "setting": "[1]", "result": "< 100", "unit": "nM"}, {"measurement": "IC50", "setting": "[2]", "result": "100 to 1000", "unit": "nM"}, {"measurement": "AC50", "setting": "[2]", "result": "100 to 1000", "unit": "nM"}, {"measurement": "IC50", "setting": "[3]", "result": "100 to 1000", "unit": "nM"}]}
{"compound": "C[C@@H]1CN(c2ccc(C(=O)Nc3cc(F)c4nc(O)cn4c3)c3nccnc23)C[C@H](C)N1", "note": "[Compound 360]", "values": [{"measurement": "IC50", "setting": "[1]", "result": "1000 to 10000", "unit": "nM"}, {"measurement": "IC50", "setting": "[2]", "result": "> 10000", "unit": "nM"}, {"measurement": "AC50", "setting": "[2]", "result": "> 10000", "unit": "nM"}, {"measurement": "IC50", "setting": "[3]", "result": "> 10000", "unit": "nM"}]}
{"compound": "Cc1cn2cc(NC(=O)c3ccc(N4CCN[C@H](CO)C4)c4nccnc34)cc(F)c2n1", "note": "[Compound 362]", "values": [{"measurement": "IC50", "setting": "[1]", "result": "< 100", "unit": "nM"}, {"measurement": "IC50", "setting": "[2]", "result": "100 to 1000", "unit": "nM"}, {"measurement": "AC50", "setting": "[2]", "result": "100 to 1000", "unit": "nM"}, {"measurement": "IC50", "setting": "[3]", "result": "100 to 1000", "unit": "nM"}]}
{"compound": "Cc1cn2cc(NC(=O)c3ccc(N4CCNC5(CCC5)C4)c4nccnc34)cc(F)c2n1", "note": "[Compound 363]", "values": [{"measurement": "IC50", "setting": "[1]", "result": "< 100", "unit": "nM"}, {"measurement": "IC50", "setting": "[2]", "result": "100 to 1000", "unit": "nM"}, {"measurement": "AC50", "setting": "[2]", "result": "100 to 1000", "unit": "nM"}, {"measurement": "IC50", "setting": "[3]", "result": "100 to 1000", "unit": "nM"}]}
{"compound": "Cc1cn2cc(NC(=O)c3ccc(N4CCN(C)C5(CC5)C4)c4nccnc34)cc(F)c2n1", "note": "[Compound 364]", "values": [{"measurement": "IC50", "setting": "[1]", "result": "< 100", "unit": "nM"}, {"measurement": "IC50", "setting": "[2]", "result": "100 to 1000", "unit": "nM"}, {"measurement": "AC50", "setting": "[2]", "result": "100 to 1000", "unit": "nM"}, {"measurement": "IC50", "setting": "[3]", "result": "100 to 1000", "unit": "nM"}]}
{"compound": "CCN1CCN(c2ccc(C(=O)Nc3cc(F)c4nc(C)cn4c3)c3nccnc23)CC12CC2", "note": "[Compound 365]", "values": [{"measurement": "IC50", "setting": "[1]", "result": "< 100", "unit": "nM"}, {"measurement": "IC50", "setting": "[2]", "result": "100 to 1000", "unit": "nM"}, {"measurement": "AC50", "setting": "[2]", "result": "100 to 1000", "unit": "nM"}, {"measurement": "IC50", "setting": "[3]", "result": "100 to 1000", "unit": "nM"}]}
{"compound": "Cc1cn2cc(NC(=O)c3ccc(N4CCN[C@H](CF)C4)c4nccnc34)cc(F)c2n1", "note": "[Compound 366]", "values": [{"measurement": "IC50", "setting": "[1]", "result": "< 100", "unit": "nM"}, {"measurement": "IC50", "setting": "[2]", "result": "100 to 1000", "unit": "nM"}, {"measurement": "AC50", "setting": "[2]", "result": "100 to 1000", "unit": "nM"}, {"measurement": "IC50", "setting": "[3]", "result": "100 to 1000", "unit": "nM"}]}
{"compound": "Cc1cn2cc(NC(=O)c3ccc(N4CCN[C@@H](CF)C4)c4nccnc34)cc(F)c2n1", "note": "[Compound 367]", "values": [{"measurement": "IC50", "setting": "[1]", "result": "100 to 1000", "unit": "nM"}, {"measurement": "IC50", "setting": "[2]", "result": "1000 to 10000", "unit": "nM"}, {"measurement": "AC50", "setting": "[2]", "result": "1000 to 10000", "unit": "nM"}, {"measurement": "IC50", "setting": "[3]", "result": "1000 to 10000", "unit": "nM"}]}
{"compound": "Cc1cn2cc(NC(=O)c3ccc(N4CCNC(C)(CO)C4)c4nccnc34)cc(F)c2n1", "note": "(centres unmarked) [Compound 368]", "values": [{"measurement": "IC50", "setting": "[1]", "result": "< 100", "unit": "nM"}, {"measurement": "IC50", "setting": "[2]", "result": "< 100", "unit": "nM"}, {"measurement": "AC50", "setting": "[2]", "result": "< 100", "unit": "nM"}, {"measurement": "IC50", "setting": "[3]", "result": "< 100", "unit": "nM"}]}
{"compound": "Cc1cn2cc(NC(=O)c3ccc(N4CCN(CCO)C5(CC5)C4)c4nccnc34)cc(F)c2n1", "note": "[Compound 369]", "values": [{"measurement": "IC50", "setting": "[1]", "result": "< 100", "unit": "nM"}, {"measurement": "IC50", "setting": "[2]", "result": "100 to 1000", "unit": "nM"}, {"measurement": "AC50", "setting": "[2]", "result": "100 to 1000", "unit": "nM"}, {"measurement": "IC50", "setting": "[3]", "result": "100 to 1000", "unit": "nM"}]}
